We go through 21 molecules from patent US9834526B2 (MERCK SHARP & DOHME CORP., priority 2013, dated 2017).

In the assay the target is T1, wildtype HIV-1 protease (Human immunodeficiency virus type 1 group M subtype B, UniProt P04585).
T1 construct: preincubated with the HIV-1 protease (wild type) enzyme in assay buffer; made in house; host or cells: Escherichia coli
As to the kind of experiment: Inhibition of microbial expressed HIV protease (Pepcleav). Type of assay: biochemical. Particulars: wild type HIV-1 protease expressed in E. coli, 20 pM enzyme, 400 micromolar peptide substrate, pH 5.5, LC-MS readout; mean of at least two independent experiments. As for the experimental part: Assay for Inhibition of Microbial Expressed HIV Protease (“Pepcleav”)
Studies of the inhibition of the wildtype HIV-1 protease (which was expressed in Escherichia coli) were carried out with a peptide substrate [Val-Ser-Gln-Asn-(βnaphthyl)Ala-Pro-Ile-Val (SEQ ID NO:1)]. The inhibitor was first preincubated with the HIV-1 protease (wild type) enzyme in assay buffer (50 mM sodium acetate, pH 5.5, 100 mM NaCl, and 0.1% BSA) for 30 minutes at room temperature. Substrate was added to 400 micromolar in a total volume of 20 microliters containing 20 picomolar HIV-1 protease (final) and the reaction was incubated for 1 hour at 30° C. The reaction was quenched with the addition of formic acid and indinavir to 0.012% and 150 nM final concentrations, respectively. The product formation was determined after separation of product and substrate on a Zorbax Eclipse XDB-C18 column connected to an API 4000 mass spectrometer (Applied Biosystems) with multiple reaction monitoring (transitions were 644.5/428.9 and 615.4/422.2 (M1/M3) for product and indinavir respectively). The extent of inhibition of the reaction was determined from the peak area of the products. Analysis of the products, independently synthesized, provided quantitation standards and confirmation of the product composition.

For orientation: IC50 means the concentration needed to halve the response being measured. Read a low IC50 as greater potency. The molecule `COC(=O)N[C@H](C(=O)Nc1ccccc1CC[C@@H]1CN[C@H](C)[C@@H](CSc2ccc(Cl)cc2)O1)C(c1ccccc1)c1ccccc1` [Example 1, N-(2-{2-[(2R,5R,6S)-6-{[(4-chlorophenyl)sulfanyl]methyl}-5-methylmorpholin-2-yl]ethyl}phenyl)-Nα-(methoxycarbonyl)-β-phenyl-L-phenylalaninamide] displayed an IC50 of 17.5 nM.

In turn, `COC(=O)N[C@H](C(=O)Nc1ccccc1CC[C@@H]1CN[C@H](C)[C@@H](COc2ccc(C#N)cc2)O1)C(c1ccccc1)c1ccccc1` [Example 2] gave a 50% inhibitory concentration (IC50) of 222 nM.

`COC(=O)N[C@H](C(=O)Nc1ccccc1CC[C@@H]1CN[C@H](C)[C@@H](CSc2ncccc2Cl)O1)C(c1ccccc1)c1ccccc1` [Example 3, N-(2-{2-[(2R,5R,6S)-6-{[(3-chloropyridin-2-yl)sulfanyl]methyl}-5-methylmorpholin-2-yl]ethyl}phenyl)-Nα-(methoxycarbonyl)-β-phenyl-L-phenylalaninamide] had an IC50 of 7.52 nM. Compared with the last molecule, the IC50 is about 30-fold lower.

Molecule `COC(=O)N[C@H](C(=O)Nc1ccccc1CC[C@@H]1CN[C@H](C)[C@@H](CSc2cccc3ncccc23)O1)C(c1ccccc1)c1ccccc1` [Example 4, methyl [(2S)-1-{[2-(2-{(2R,5R,6S)-5-methyl-6-[(quinolin-5-ylsulfanyl)methyl]morpholin-2-yl}ethyl)phenyl]amino}-1-oxo-3,3-diphenylpropan-2-yl]carbamate] showed an IC50 of 10.6 nM.

With `COC(=O)N[C@H](C(=O)Nc1ccccc1CC[C@@H]1CN[C@H](C)[C@@H](CSc2nnc(-c3ccncc3)o2)O1)C(c1ccccc1)c1ccccc1` [Example 5, methyl N-[(1S)-1-benzhydryl-2-[[2-[2-[(2R,5R,6S)-5-methyl-6-[[5-(4-pyridyl)-1,3,4-oxadiazol-2-yl]sulfanylmethyl]morpholin-2-yl]ethyl]phenyl]amino]-2-oxo-ethyl]carbamate], the IC50 was 4.96 nM. Against the preceding molecule, the IC50 is about 2.1-fold lower.

Turning to `COC(=O)N[C@H](C(=O)Nc1ccccc1CC[C@@H]1CN[C@H](C)[C@@H](CSc2nnc(Cn3nccc3C)o2)O1)C(c1ccccc1)c1ccccc1` [Example 6, methyl N-[(1S)-1-benzhydryl-2-[[2-[2-[(2R,5R,6S)-5-methyl-6-[[5-[(5-methylpyrazol-1-yl)methyl]-1,3,4-oxadiazol-2-yl]sulfanylmethyl]morpholin-2-yl]ethyl]phenyl]amino]-2-oxo-ethyl]carbamate], the IC50 came out at 5.12 nM.

For `COC(=O)N[C@H](C(=O)Nc1ccccc1CC[C@@H]1CN[C@H](C)[C@@H](CSc2nnc(Cc3csc(C)n3)o2)O1)C(c1ccccc1)c1ccccc1` [Example 7, methyl N-[(1S)-1-benzhydryl-2-[[2-[2-[(2R,5R,6S)-5-methyl-6-[[5-[(2-methylthiazol-4-yl)methyl]-1,3,4-oxadiazol-2-yl]sulfanylmethyl]morpholin-2-yl]ethyl]phenyl]amino]-2-oxo-ethyl]carbamate], 7.95 nM corresponded to half-maximal inhibition (IC50).

In turn, `COC(=O)N[C@H](C(=O)Nc1ccccc1CC[C@@H]1CN[C@H](C)[C@@H](CSc2ccc(Cl)cn2)O1)C(c1ccccc1)c1ccccc1` [Example 8, methyl N-[(1S)-1-benzhydryl-2-[[2-[2-[(2R,5R,6S)-6-[(5-chloro-2-pyridyl)sulfanylmethyl]-5-methyl-morpholin-2-yl]ethyl]phenyl]amino]-2-oxo-ethyl]carbamate] showed an IC50 of 8.35 nM.

Consider `COC(=O)N[C@H](C(=O)Nc1ccccc1CC[C@@H]1CN[C@H](C)[C@@H](CSc2cnc3ccccc3n2)O1)C(c1ccccc1)c1ccccc1` [Example 9, methyl N-[(1S)-1-benzhydryl-2-[[2-[2-[(2R,5R,6S)-5-methyl-6-(quinoxalin-2-ylsulfanylmethyl)morpholin-2-yl]ethyl]phenyl]amino]-2-oxo-ethyl]carbamate], for which 8.48 nM corresponded to half-maximal inhibition (IC50).

`COC(=O)N[C@H](C(=O)Nc1ccccc1CC[C@@H]1CN[C@H](C)[C@@H](CSc2ncnc3[nH]ncc23)O1)C(c1ccccc1)c1ccccc1` [Example 10, methyl N-[(1S)-1-benzhydryl-2-[[2-[2-[(2R,5R,6S)-5-methyl-6-(1H-pyrazolo[3,4-d]pyrimidin-4-ylsulfanylmethyl)morpholin-2-yl]ethyl]phenyl]amino]-2-oxo-ethyl]carbamate] returned an IC50 of 9.43 nM.

As to `COC(=O)N[C@H](C(=O)Nc1ccccc1CC[C@@H]1CN[C@H](C)[C@@H](CSc2ncnc3c2cnn3C)O1)C(c1ccccc1)c1ccccc1` [Example 11, methyl N-[(1S)-1-benzhydryl-2-[[2-[2-[(2R,5R,6S)-5-methyl-6-[(1-methylpyrazolo[3,4-d]pyrimidin-4-yl)sulfanylmethyl]morpholin-2-yl]ethyl]phenyl]amino]-2-oxo-ethyl]carbamate], the IC50 was 11.7 nM.

With `COC(=O)N[C@H](C(=O)Nc1ccccc1CC[C@@H]1CN[C@H](C)[C@@H](CSc2ccc(C)c(C)c2)O1)C(c1ccccc1)c1ccccc1` [Example 12, methyl N-[(1S)-1-benzhydryl-2-[[2-[2-[(2R,5R,6S)-6-[(3,4-dimethylphenyl)sulfanylmethyl]-5-methyl-morpholin-2-yl]ethyl]phenyl]amino]-2-oxo-ethyl]carbamate], the IC50 worked out at 11.9 nM.

In turn, `COC(=O)N[C@H](C(=O)Nc1ccccc1CC[C@@H]1CN[C@H](C)[C@@H](CSc2nncs2)O1)C(c1ccccc1)c1ccccc1` [Example 13, methyl N-[(1S)-1-benzhydryl-2-[[2-[2-[(2R,5R,6S)-5-methyl-6-(1,3,4-thiadiazol-2-ylsulfanylmethyl)morpholin-2-yl]ethyl]phenyl]amino]-2-oxo-ethyl]carbamate] yielded an IC50 of 12.5 nM.

The molecule `COC(=O)N[C@H](C(=O)Nc1ccccc1CC[C@@H]1CN[C@H](C)[C@@H](CSc2nc(C(F)(F)F)nc3ccccc23)O1)C(c1ccccc1)c1ccccc1` [Example 14, methyl N-[(1S)-1-benzhydryl-2-[[2-[2-[(2R,5R,6S)-5-methyl-6-[[2-(trifluoromethyl)quinazolin-4-yl]sulfanylmethyl]morpholin-2-yl]ethyl]phenyl]amino]-2-oxo-ethyl]carbamate] yielded an IC50 of 14.2 nM. This IC50 and that of the molecule before are within 1.5-fold of each other.

Consider `CCC(O)(c1cnc(SC[C@H]2O[C@H](CCc3ccccc3NC(=O)[C@@H](NC(=O)OC)C(c3ccccc3)c3ccccc3)CN[C@@H]2C)s1)C(F)(F)F` (stereo partly drawn) [Example 15, methyl N-[(1S)-1-benzhydryl-2-[[2-[2-[(2R,5R,6S)-6-[[5-[1-hydroxy-1-(trifluoromethyl)propyl]thiazol-2-yl]sulfanylmethyl]-5-methyl-morpholin-2-yl]ethyl]phenyl]amino]-2-oxo-ethyl]carbamate], for which 17.8 nM corresponded to half-maximal inhibition (IC50). The IC50 values of the last two molecules are within 1.5-fold of each other.

`COC(=O)N[C@H](C(=O)Nc1ccccc1CC[C@@H]1CN[C@H](C)[C@@H](CSc2nc(C)c(C)o2)O1)C(c1ccccc1)c1ccccc1` [Example 16, methyl N-[(1S)-1-benzhydryl-2-[[2-[2-[(2R,5R,6S)-6-[(4,5-dimethyloxazol-2-yl)sulfanylmethyl]-5-methyl-morpholin-2-yl]ethyl]phenyl]amino]-2-oxo-ethyl]carbamate] displayed an IC50 of 21.5 nM.

Take `COC(=O)N[C@H](C(=O)Nc1ccccc1CC[C@@H]1CN[C@H](C)[C@@H](CSc2nc3ccc(OC(F)F)cc3[nH]2)O1)C(c1ccccc1)c1ccccc1` [Example 17, methyl N-[(1S)-1-benzhydryl-2-[[2-[2-[(2R,5R,6S)-6-[[5-(difluoromethoxy)-1H-benzimidazol-2-yl]sulfanylmethyl]-5-methyl-morpholin-2-yl]ethyl]phenyl]amino]-2-oxo-ethyl]carbamate]: 25.1 nM corresponded to half-maximal inhibition (IC50).

In turn, `COC(=O)N[C@H](C(=O)Nc1ccccc1CC[C@@H]1CN[C@H](C)[C@@H](CSc2nc(C)cc(C(F)(F)F)n2)O1)C(c1ccccc1)c1ccccc1` [Example 18, methyl N-[(1S)-1-benzhydryl-2-[[2-[2-[(2R,5R,6S)-5-methyl-6-[[4-methyl-6-(trifluoromethyl)pyrimidin-2-yl]sulfanylmethyl]morpholin-2-yl]ethyl]phenyl]amino]-2-oxo-ethyl]carbamate] returned an IC50 of 34.9 nM. This IC50 and that of the molecule before are within 1.5-fold of each other.

Take `COC(=O)N[C@H](C(=O)Nc1ccccc1CC[C@@H]1CN[C@H](C)[C@@H](CSc2ccncc2)O1)C(c1ccccc1)c1ccccc1` [Example 19, methyl N-[(1S)-1-benzhydryl-2-[[2-[2-[(2R,5R,6S)-5-methyl-6-(4-pyridylsulfanylmethyl)morpholin-2-yl]ethyl]phenyl]amino]-2-oxo-ethyl]carbamate]: the half-maximal inhibitory concentration (IC50) came out at 41.4 nM.

For the molecule `COC(=O)N[C@H](C(=O)Nc1ccccc1CC[C@@H]1CN[C@H](C)[C@@H](CSc2ncccc2C(F)(F)F)O1)C(c1ccccc1)c1ccccc1` [Example 20, methyl N-[(1S)-1-benzhydryl-2-[[2-[2-[(2R,5R,6S)-5-methyl-6-[[3-(trifluoromethyl)-2-pyridyl]sulfanylmethyl]morpholin-2-yl]ethyl]phenyl]amino]-2-oxo-ethyl]carbamate], 43.3 nM corresponded to half-maximal inhibition (IC50).

Molecule `COC(=O)N[C@H](C(=O)Nc1ccccc1CC[C@@H]1CN[C@H](C)[C@@H](CSc2nc3ccc(Cl)nc3s2)O1)C(c1ccccc1)c1ccccc1` [Example 21, methyl N-[(1S)-1-benzhydryl-2-[[2-[2-[(2R,5R,6S)-6-[(5-chlorothiazolo[5,4-b]pyridin-2-yl)sulfanylmethyl]-5-methyl-morpholin-2-yl]ethyl]phenyl]amino]-2-oxo-ethyl]carbamate] yielded an IC50 of 44.3 nM.
